Measurements published in article PMC10224335, “Purification, Identification, and Inhibitory Mechanisms of a Novel ACE Inhibitory Peptide from Torreya grandis” (Nutrients, 2023).
Like-named read-outs stand apart in the source and are kept apart here. Each block holds one compound with its values, some of them ahead of it. Peptide text beside a SMILES is read from it.

Key:
pepsin and trypsin = assay: Stability against simulated gastrointestinal digestion (pepsin, trypsin); type: in vitro ADME
Method: The simulated gastrointestinal digestion method was applied according to Li et al., with some modifications. In brief, pH 2.0 was adjusted for the VW-7 solution (ultrapure water, c = 0.4 mg/mL). The peptide solution was mixed with pepsin (2%, w/w) for 2 h at 37 °C. The pH was changed to 7.0 after the process, and half of the liquid was withdrawn. The other half was then given trypsin (2%, w/w) and digested at 37 °C for 2 h. Finally, the reaction was terminated by a boiling water bath, and the ACE inhibition rate of the two-step reaction products was measured.
RP-HPLC was used to analyze the liquid obtained after digestion. The mobile phase A was water containing 0.1% TFA, and the mobile phase B was 100% ACN containing 0.1% TFA. The flow rate was set to 1 mL/min, the detection wavelength was 214 nm, and the column temperature was 30 °C.

Cell viability, CCK-8 = type: cell-based, Human; conditions: human, EA.hy926 cells
Method: (§1) Human umbilical vein endothelial cells (EA.hy926) were grown in DMEM with 10% FBS and 1% penicillin-streptomycin at 37 °C in a humidified environment of 5% CO2.
(§2) Using a cell counting kit-8 (CCK-8) kit, the cytotoxicity of the peptide VNDYLNW in EA.hy926 was assessed. In 96-well cell culture plates, cells were inoculated at a density of 5 × 10^3/well. After 24 h of pre-incubation at 37 ℃ and 5% CO2, 50 µL of peptides with different concentrations were added to achieve the final concentrations of solution of 100, 200, 400, 600, 800, and 1000 µg/mL (using complete medium as the control) for 24 h. Following treatment, the culture medium was removed, 100 µL of medium (without FBS) was added, and 10 µL of CCK-8 was then added to each well. The culture was incubated for 1 h at 37 ℃ and 5% CO2. Finally, the light absorption value at 450 nm was detected by the microplate reader. Relative cell viability was calculated according to Equation (3):(3) Cell viability%=(A − A0)/A1 − A0 × 100 where A1 is the absorbance of cells that are not treated with peptides, A is the absorbance of cells that are treated with peptides, and A0 is the absorbance of the group without cells in the medium.

EA.hy926 cells = assay: Cell viability, CCK-8; type: cell-based, Human; conditions: 0–400 μg/mL, 24 h
Method: as §1, §2

ACE = conditions: cited from earlier work; for IC50: read-out: IC50 of ACE inhibition
From the text: The ACE inhibitory activity of the remaining peptides was low, and the inhibition rate was below 20%. Here, we measured the I ... || Based on the Lineweaver–Burk plot analysis, the inhibitory mechanism of VW-7 on ACE was investigated. According to Table 3, the Vmax value decreased and the Km value increased as the peptide concentration increased. […] When the peptide binds to ...

cells = conditions: treatment with 25–100 µg/mL; cited from earlier work
From the text: NO is a messenger molecular medium that provides multiple functions in biological tissues. Previous studies have shown that the production of NO is one of the potential mechanisms for the prevention and treatment of hypertension. Inhibiting ACE can prevent vasodilator breakdown and directly stimulate endothelial cells to produce NO [16]. We cultured EA.hy926 cells in the medium and evaluated the intracellular NO in order to see how VW-7 affected the generation of NO in these cells.

ACE inhibitory action after gastrointestinal digestion (pepsin and trypsin; 0.4 mg/mL in ultrapure water, pH 2.0 pepsin 2% w/w 2 h 37 °C, then pH 7.0 trypsin 2% w/w 2 h 37 °C, read-out ACE inhibition rate, p > 0.05): remained essentially unaltered
RP-HPLC peak area after two-step digestion (pepsin and trypsin; 0.4 mg/mL, pepsin pH 2.0 2 h then trypsin pH 7.0 2 h, 37 °C, RP-HPLC, UV 214 nm): did not change
Compound: CC(C)C[C@H](NC(=O)[C@H](Cc1ccc(O)cc1)NC(=O)[C@H](CC(=O)O)NC(=O)[C@H](CC(N)=O)NC(=O)[C@@H](N)C(C)C)C(=O)N[C@@H](CC(N)=O)C(=O)N[C@@H](Cc1c[nH]c2ccccc12)C(=O)O [VNDYLNW] (H-VNDYLNW-OH)
viability at 24 h, 600 µg/mL (Cell viability, CCK-8; 600 µg/mL, mean ± SD): 92.4 ± 2.4%
viability at 24 h (Cell viability, CCK-8; concentration above 600 µg/mL (up to 1000 µg/mL)): < 80%
toxic effect on EA.hy926 cells (EA.hy926 cells): no toxic effect
toxic effect on EA.hy926 cells (EA.hy926 cells; listed as VW-7): no cytotoxicity

Compound: EVSQGRP
type of ACE inhibition (ACE; peptides from sea cucumber): mixed-type inhibition

Compound: NMAINPSKENLCSTFCK
type of ACE inhibition (ACE; peptide from casein): mixed-type inhibition

Compound: SAAVGSP
type of ACE inhibition (ACE; peptides from sea cucumber): mixed-type inhibition

Compound: VASVI [reported antihypertensive peptide from Olive Flounder Surimi]
production of NO in cells (cells): significantly increased

Compound: VDMF
IC50 (ACE; peptide extracted from Coix prolamin): 382 µM

Compound: VSRHFASYAN
type of ACE inhibition (ACE; peptides from sea cucumber): mixed-type inhibition

Compound: VTPVGVPKW
IC50 (ACE; peptide extracted from Black Cumin seeds): 1.8 µM
